Test results reported in PubChem BioAssay AID328 (DTP/NCI, 2004).
“And” between values parts separate entries of the source, which are not always exact repeats. Equal entries are not always repeated. Toxic doses and inconclusive results are not listed.

System: BDF1 mice, P388 leukemia ip, median survival T/C
Test: NCI In Vivo Anticancer Drug Screen. Data for tumor model P388 Leukemia (intraperitoneal) in B6D2F1 (BDF1) mice
Settings: endpoint: median survival time, higher = longer survival
In short: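 Compound-treated tumour-bearing mice were compared with vehicle-treated controls. Survival was recorded, and the value is the treated-group measurement divided by the control-group measurement (T/C).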

[1] = dose: 50.0 mg/kg/injection, schedule: Q01DX009 (ip), vehicle: Klucel (hydroxypropylcellulose) (HPC)
[2] = dose: 25.0 mg/kg/injection, schedule: Q01DX009 (ip), vehicle: saline
[3] = dose: 50.0 mg/kg/injection, schedule: Q01DX009 (ip), vehicle: saline
[4] = dose: 50.0 mg/kg/injection, schedule: Q04DX003 (ip), vehicle: saline
[5] = dose: 100.0 mg/kg/injection, schedule: Q04DX003 (ip), vehicle: saline
[6] = dose: 100.0 mg/kg/injection, schedule: Q04DX003 (ip), vehicle: Klucel (hydroxypropylcellulose) (HPC)
[7] = dose: 200.0 mg/kg/injection, schedule: Q04DX003 (ip), vehicle: Klucel (hydroxypropylcellulose) (HPC)
[8] = dose: 100.0 mg/kg/injection, schedule: Q01DX001 (ip), vehicle: saline with Tween-80
[9] = dose: 200.0 mg/kg/injection, schedule: Q01DX001 (ip), vehicle: saline with Tween-80
[10] = dose: 12.5 mg/kg/injection, schedule: Q01DX009 (ip), vehicle: Klucel (hydroxypropylcellulose) (HPC)
[11] = dose: 25.0 mg/kg/injection, schedule: Q01DX009 (ip), vehicle: Klucel (hydroxypropylcellulose) (HPC)
[12] = dose: 25.0 mg/kg/injection, schedule: Q01DX009 (ip), vehicle: saline with Tween-80
[13] = dose: 50.0 mg/kg/injection, schedule: Q01DX009 (ip), vehicle: saline with Tween-80
[14] = dose: 100.0 mg/kg/injection, schedule: Q01DX009 (ip), vehicle: saline with Tween-80
[15] = dose: 200.0 mg/kg/injection, schedule: Q01DX009 (ip), vehicle: saline with Tween-80

`Nc1nc(-c2ccccc2)cc2ccccc12` was tested, and the T/C (dose: 12.5 mg/kg/injection, schedule: Q04DX003 (ip), vehicle: saline with Tween-80) was 100 % of control and the T/C (dose: 25.0 mg/kg/injection, schedule: Q04DX003 (ip), vehicle: saline with Tween-80) was 97 % of control.
In the case of `CCCCC[C@@H](CN(C)C)[C@H](O)/C=C/c1ccc(Cl)cc1`, the T/C [1] is reported as 96 % of control.
For `Cc1ccc2c(c1)CCCN2C`, the T/C [2] was 114 % of control, the T/C [3] was 114 % of control and the T/C [4] was 104 % of control. The T/C [5] was 104 % of control.
`CC(=O)OCC(=O)[C@@]1(O)CC[C@H]2[C@@H]3CCC4=CC(=O)C=C[C@]4(C)[C@H]3[C@@H](O)C[C@@]21C` was tested, and the T/C [2] was 91 % of control, the T/C [3] was 91 % of control and the T/C [5] was 109 % of control.
`N#CC1CCCCC1C1(C#N)CCCCC1Cc1ccc2ccccc2n1` (centres undefined) was tested, and the T/C (dose: 100.0 mg/kg/injection, schedule: Q04DX002 (ip), vehicle: saline with Tween-80) was 96 % of control, the T/C (dose: 200.0 mg/kg/injection, schedule: Q04DX002 (ip), vehicle: saline with Tween-80) was 104 % of control and the T/C (dose: 400.0 mg/kg/injection, schedule: Q04DX002 (ip), vehicle: saline with Tween-80) was 107 % of control.
In the case of `C/C(=N\[N+](C)(C)C)c1cccc(C)n1`, the T/C [2] is reported as 100 % of control, the T/C (dose: 25.0 mg/kg/injection, schedule: Q04DX003 (ip), vehicle: saline) is reported as 108 % of control and the T/C (dose: 33.0 mg/kg/injection, schedule: Q04DX003 (ip), vehicle: saline with Tween-80) is reported as 100 % of control. For the same compound, the T/C (dose: 33.0 mg/kg/injection, schedule: Q04DX003 (ip), vehicle: saline) was 104 % of control, the T/C [3] was 95 % of control and the T/C (dose: 50.0 mg/kg/injection, schedule: Q04DX003 (ip), vehicle: saline with Tween-80) was 100 % of control. For the same compound, the T/C [4] was 95 % of control, the T/C (dose: 75.0 mg/kg/injection, schedule: Q04DX003 (ip), vehicle: saline with Tween-80) was 100 % of control and the T/C (dose: 75.0 mg/kg/injection, schedule: Q04DX003 (ip), vehicle: saline) was 100 % of control. For the same compound, the T/C [5] was 108 % of control.
In the case of `O=c1oc2cc(O)ccc2c2c1CCCC2`, the T/C [6] is reported as 95 % of control, the T/C [7] is reported as 95 % of control and the T/C (dose: 400.0 mg/kg/injection, schedule: Q04DX003 (ip), vehicle: Klucel (hydroxypropylcellulose) (HPC)) is reported as 100 % of control.
For `CCOC(=O)C1=C(C)NC(C)=C(C(=O)OCC)C1`, the T/C [8] was 90 % of control, the T/C [9] was 95 % of control and the T/C (dose: 400.0 mg/kg/injection, schedule: Q01DX001 (ip), vehicle: saline with Tween-80) was 100 % of control.
For `CCCCCC(O)C1C(=O)OC(C)C(O)/C=C/C=C/C=C/C=C\C=C(\C)C(O)CC(O)CC(O)CC(O)CC(O)CC(O)CC1O` (centres undefined), the T/C (dose: 2.5 mg/kg/injection, schedule: Q01DX009 (ip), vehicle: saline) was 111 % of control, the T/C (dose: 5.0 mg/kg/injection, schedule: Q01DX009 (ip), vehicle: Klucel (hydroxypropylcellulose) (HPC)) was 95 % of control and the T/C (dose: 10.0 mg/kg/injection, schedule: Q01DX009 (ip), vehicle: Klucel (hydroxypropylcellulose) (HPC)) was 105 % of control. For the same compound, the T/C (dose: 20.0 mg/kg/injection, schedule: Q01DX009 (ip), vehicle: Klucel (hydroxypropylcellulose) (HPC)) was 90 % of control.
With `CC(=O)OCC(=O)[C@@]1(O)CC[C@H]2[C@@H]3CCC4=CC(=O)[C@H](C)C[C@]4(C)[C@@]3(F)[C@@H](O)C[C@@]21C` the T/C (dose: 6.25 mg/kg/injection, schedule: Q01DX009 (ip), vehicle: Klucel (hydroxypropylcellulose) (HPC)) was 109 % of control, the T/C [10] was 109 % of control and the T/C [11] was 90 % of control. The T/C (dose: 254.0 mg/kg/injection, schedule: Q01DX001 (ip), vehicle: Klucel (hydroxypropylcellulose) (HPC)) was 100 % of control and the T/C (dose: 385.0 mg/kg/injection, schedule: Q01DX001 (ip), vehicle: Klucel (hydroxypropylcellulose) (HPC)) was 91 % of control.
In the case of `Cc1cc(C)c(OC(=O)CNC(=O)C(C)NC(=O)OC(C)(C)C)c(C)c1` (centres undefined), the T/C (dose: 50.0 mg/kg/injection, schedule: Q01DX005 (ip), vehicle: Klucel (hydroxypropylcellulose) (HPC)) is reported as 91 % of control, the T/C (dose: 100.0 mg/kg/injection, schedule: Q01DX005 (ip), vehicle: Klucel (hydroxypropylcellulose) (HPC)) is reported as 97 % of control and the T/C (dose: 200.0 mg/kg/injection, schedule: Q01DX005 (ip), vehicle: Klucel (hydroxypropylcellulose) (HPC)) is reported as 91 % of control.
With `CCc1ccc(C(=O)N/N=C(\C)[C@]2(O)Cc3c(O)c4c(c(O)c3[C@@H](OC3CC(N)C(O)C(C)O3)C2)C(=O)c2c(OC)cccc2C4=O)cc1` (some centres undefined) the T/C (dose: 1.56 mg/kg/injection, schedule: Q01DX009 (ip), vehicle: water) was 117 % of control, the T/C (dose: 3.12 mg/kg/injection, schedule: Q01DX009 (ip), vehicle: water) was 161 % of control and the T/C (dose: 6.25 mg/kg/injection, schedule: Q01DX009 (ip), vehicle: water) was 152 % of control and 166 % of control. For the same compound, the T/C (dose: 12.5 mg/kg/injection, schedule: Q01DX009 (ip), vehicle: water) was 95 % of control and 122 % of control.
`CC1=Nc2ccccc2N=C(C)C1` was tested, and the T/C [12] was 100 % of control, the T/C (dose: 50.0 mg/kg/injection, schedule: Q01DX001 (ip), vehicle: saline with Tween-80) was 100 % of control and the T/C [13] was 90 % of control. The T/C [8] was 104 % of control, the T/C [14] was 109 % of control and the T/C (dose: 100.0 mg/kg/injection, schedule: Q04DX003 (ip), vehicle: saline with Tween-80) was 100 % of control. For the same compound, the T/C (dose: 150.0 mg/kg/injection, schedule: Q01DX009 (ip), vehicle: saline with Tween-80) was 100 % of control, the T/C [9] was 100 % of control and the T/C (dose: 200.0 mg/kg/injection, schedule: Q04DX003 (ip), vehicle: saline with Tween-80) was 100 % of control.
In the case of `O=C1NC(O)c2cc(CO)ccc2O1` (centres undefined), the T/C (dose: 50.0 mg/kg/injection, schedule: Q01DX005 (ip), vehicle: saline with Tween-80) is reported as 100 % of control, the T/C (dose: 100.0 mg/kg/injection, schedule: Q01DX005 (ip), vehicle: saline with Tween-80) is reported as 104 % of control and the T/C (dose: 200.0 mg/kg/injection, schedule: Q01DX005 (ip), vehicle: saline with Tween-80) is reported as 109 % of control.
For `Cc1ccc(C(=O)CO)cc1`, the T/C [13] was 98 % of control, the T/C [14] was 102 % of control and the T/C [15] was 98 % of control.
With `O=[N+]([O-])/C=C/c1ccc([N+](=O)[O-])cc1Cl` the T/C [10] was 109 % of control, the T/C [11] was 109 % of control and the T/C (dose: 25.0 mg/kg/injection, schedule: Q04DX003 (ip), vehicle: Klucel (hydroxypropylcellulose) (HPC)) was 115 % of control. The T/C [1] was 104 % of control, the T/C (dose: 50.0 mg/kg/injection, schedule: Q04DX003 (ip), vehicle: Klucel (hydroxypropylcellulose) (HPC)) was 107 % of control and the T/C [6] was 88 % of control.
`C/C(CC1(O)C(=O)Nc2ccccc21)=N\O` (centres undefined) was tested, and the T/C [14] was 100 % of control, the T/C [15] was 95 % of control and the T/C (dose: 400.0 mg/kg/injection, schedule: Q01DX009 (ip), vehicle: saline with Tween-80) was 104 % of control.
`CC(C(=O)c1cccs1)C(O)(C(F)(F)F)C(F)(F)F` (centres undefined) was tested, and the T/C [6] was 91 % of control and the T/C [7] was 91 % of control.
For `CC[C@H](c1ccc(O)cc1)[C@@H](CC)c1ccc(O)cc1`, the T/C [1] was 90 % of control, the T/C (dose: 100.0 mg/kg/injection, schedule: Q01DX009 (ip), vehicle: Klucel (hydroxypropylcellulose) (HPC)) was 100 % of control and the T/C (dose: 100.0 mg/kg/injection, schedule: Q04DX003 (ip), vehicle: other) was 100 % of control. For the same compound, the T/C (dose: 132.0 mg/kg/injection, schedule: Q04DX003 (ip), vehicle: Klucel (hydroxypropylcellulose) (HPC)) was 104 % of control and 120 % of control, the T/C (dose: 200.0 mg/kg/injection, schedule: Q01DX009 (ip), vehicle: Klucel (hydroxypropylcellulose) (HPC)) was 104 % of control and the T/C [7] was 104 % of control and 120 % of control. For the same compound, the T/C (dose: 300.0 mg/kg/injection, schedule: Q04DX003 (ip), vehicle: Klucel (hydroxypropylcellulose) (HPC)) was 109 % of control and 110 % of control and the T/C (dose: 400.0 mg/kg/injection, schedule: Q04DX003 (ip), vehicle: other) was 105 % of control.
For `OC1(CSc2ccccc2)C=CCCC1` (centres undefined), the T/C [12] was 97 % of control and 111 % of control, the T/C [13] was 98 % of control and 112 % of control and 113 % of control and the T/C [14] was 109 % of control and 112 % of control and 121 % of control. For the same compound, the T/C [15] was 111 % of control and 119 % of control and 120 % of control.
With `C1CCc2nnnn2CC1` the T/C (dose: 2.34 mg/kg/injection, schedule: Q04DX003 (ip), vehicle: saline) was 91 % of control, the T/C (dose: 4.68 mg/kg/injection, schedule: Q04DX003 (ip), vehicle: saline) was 91 % of control and the T/C (dose: 9.37 mg/kg/injection, schedule: Q04DX003 (ip), vehicle: saline) was 91 % of control. For the same compound, the T/C (dose: 12.5 mg/kg/injection, schedule: Q01DX009 (ip), vehicle: saline) was 118 % of control, the T/C (dose: 18.75 mg/kg/injection, schedule: Q04DX003 (ip), vehicle: saline) was 100 % of control and the T/C [2] was 118 % of control.
